Experimental data from ChEMBL document CHEMBL3046588, “Design, synthesis, and in vitro evaluation of cytotoxic activity of new substituted 1,4-benzoquinones and hydroquinones” (2007).

Legend:
Type in all cases: functional
[1] = Cytotoxicity against Homo sapiens (human) renal cancer cells after 48 hr by SRB assay; conditions: Cancer cell lines
SF-268 = experiment: Cytotoxicity against Homo sapiens (human) SF268 cells assessed as cellular growth after 48 hr by Alamar blue assay; design: concentration or dose not given beside the values
[2] = Cytotoxicity against Homo sapiens (human) non-small cell lung cancer cells after 48 hr by SRB assay; conditions: Cancer cell lines
NCI-H460 = experiment: Cytotoxicity against Homo sapiens (human) NCI-H460 cells assessed as cellular growth after 48 hr by Alamar blue assay; design: concentration or dose not given beside the values
[3] = Cytotoxicity against Homo sapiens (human) ovarian cancer cells after 48 hr by SRB assay; conditions: Cancer cell lines
[4] = Cytotoxicity against Homo sapiens (human) breast cancer cells after 48 hr by SRB assay; conditions: Cancer cell lines; for LC50 (concentration giving 50% net cell kill): pooled result: one value given for 9 cell lines, strains, targets or settings
MCF7 = experiment: Cytotoxicity against Homo sapiens (human) MCF7 cells assessed as cellular growth after 48 hr by Alamar blue assay; design: concentration or dose not given beside the values
[5] = Cytotoxicity against Homo sapiens (human) CNS cancer cells after 48 hr by SRB assay; conditions: Cancer cell lines
[6] = Cytotoxicity against Homo sapiens (human) prostate cancer cells after 48 hr by SRB assay; conditions: Cancer cell lines
[7] = Cytotoxicity against Homo sapiens (human) colon cancer cells after 48 hr by SRB assay; conditions: Cancer cell lines
[8] = Cytotoxicity against Homo sapiens (human) leukemia cells after 48 hr by SRB assay; conditions: Leukemia cell
[9] = Cytotoxicity against Homo sapiens (human) melanoma cellsafter 48 hr by SRB assay; conditions: Melanoma cell

Row | SMILES | GI50 [1] [µM] | TGI [1] [µM] | Activity (SF-268) [%] | GI50 [2] [µM] | TGI [2] [µM] | Activity (NCI-H460) [%] | GI50 [3] [µM] | TGI [3] [µM] | GI50 [4] [µM] | TGI [4] [µM] | LC50 (concentration giving 50% net cell kill) [4] [µM] | Activity (MCF7) [%] | GI50 [5] [µM] | TGI [5] [µM] | GI50 [6] [µM] | TGI [6] [µM] | GI50 [7] [µM] | TGI [7] [µM] | GI50 [8] [µM] | TGI [8] [µM] | also measured
1 | COc1ccc(OC)c(-c2cc(-c3ccccc3)nn2-c2ccc(S(=O)(=O)NC(C)=O)cc2)c1 | 13.3 | 37.6 | <32 | 15.3 | 49.8 | <32 | 13.3 | 50.7 | 9.7 | 44.5 | 77.1 | <32 | 18.1 | 42.6 | 12 | 28.8 | 3.74 | 18.2 | 7.4 | 53.4 | GI50 [9]: 15.4 µM; TGI [9]: 36.2 µM
2 | O=C(CC1C(=O)NN(c2ccc(Br)cc2)C1=O)c1cc(O)ccc1O (configuration not stated) | 23.7 | 46.9 | <32 | 21.7 | 48.4 | <32 | 26.2 | 44.3 | 16.1 | 40.9 | 49.9 | <32 | 18.8 | 40.5 | 22.7 | 50 | 17.7 | 43.3 | 34.1 | 50 | GI50 [9]: 22 µM; TGI [9]: 42.4 µM
3 | COc1ccc(OC)c(-c2cc(-c3ccccc3)nn2-c2ccc(S(N)(=O)=O)cc2)c1 | 13 | 29.8 | <32 | 31.4 | 40.7 | <32 | 13.6 | 43.7 | 12.3 | 32.9 | 73 | <32 | 15 | 31.1 | 13.9 | 28.8 | 11.9 | 27.5 | 6.94 | 68.5 | GI50 [9]: 15.3 µM; TGI [9]: 40.8 µM
4 | COc1ccc(OC)c(-c2cc(-c3ccc(Cl)cc3)nn2-c2ccc(S(=O)(=O)NC(C)=O)cc2)c1 | 17.7 | 53.2 | <32 | 17.7 | 52.6 | <32 | 23.4 | 67.1 | 25.4 | 70.2 | 79.2 | <32 | 19.4 | 50 | 3.61 | 21.9 | 8.18 | 36 | 7.45 | 50.1 | GI50 [9]: 10.7 µM; TGI [9]: 28.7 µM
5 | Oc1ccc(O)c(-c2cc(-c3ccccc3)nn2-c2ccccc2)c1 | 22.6 | 67.3 | <32 | 26.9 | 63.6 | <32 | 37.6 | 75.2 | 17.1 | 75.7 | 91.3 | <32 | 18.6 | 71.2 | 16.7 | 100 | 28.5 | 77.4 | 35.7 | 100 | GI50 [9]: 22.6 µM; TGI [9]: 63.9 µM
6 | O=C1C=CC(=O)C(c2cc(-c3ccc(Cl)cc3)nn2-c2ccccc2)=C1 | 55.6 | 53.3 | <32 | 53.5 | 70.1 | <32 | 67.3 | 81.7 | 51.5 | 69.3 | 95.6 | <32 | 65.3 | 55.8 | 36.5 | 66.3 | 42.4 | 69.7 | 27.8 | 87.1 | GI50 [9]: 69.4 µM; TGI [9]: 55.4 µM
